Reference: PMC6934184, “Selective DNA-PKcs inhibition extends the therapeutic index of localized radiotherapy and chemotherapy” (The Journal of Clinical Investigation, 2019)

Molecular target: T1, MKNK2 (MNK2) (Homo sapiens, UniProt Q9HBH9)
T1 construct: purchased Thermo Fisher Scientific (Life Technologies) SelectScreen
Test: SelectScreen LanthaScreen
Assay type: binding
Conditions: read-out: % displacement
How it was run: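 SelectScreen broad panel; activity (Z'LYTE, Adapta) plus binding formats. ATP: Km app for CSF1R Z'LYTE; 10 for CAMK1 Adapta. Readout = % per kinase.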

T1 sequence (Q9HBH9 whole entry): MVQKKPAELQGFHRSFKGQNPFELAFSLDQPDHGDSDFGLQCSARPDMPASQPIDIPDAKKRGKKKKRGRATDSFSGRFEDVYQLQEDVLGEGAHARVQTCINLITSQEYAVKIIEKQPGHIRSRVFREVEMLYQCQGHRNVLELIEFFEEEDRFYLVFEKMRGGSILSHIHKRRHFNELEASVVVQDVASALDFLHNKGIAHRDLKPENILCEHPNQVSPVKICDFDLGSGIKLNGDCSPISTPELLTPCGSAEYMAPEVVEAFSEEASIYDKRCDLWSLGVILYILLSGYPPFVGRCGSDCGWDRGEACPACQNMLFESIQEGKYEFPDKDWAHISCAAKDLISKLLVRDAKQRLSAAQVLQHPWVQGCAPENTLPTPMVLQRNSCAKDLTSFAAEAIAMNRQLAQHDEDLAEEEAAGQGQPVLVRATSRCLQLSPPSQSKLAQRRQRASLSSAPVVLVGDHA

CN(C(=O)CN1CCOCC1)c1ccc2sc3c(-c4cccc5c(=O)cc(N6CC7CCC(C6)O7)oc45)cccc3c2c1 [NU5455]
inhibition at 1 µM: 0.2%
